Laboratory results published in patent publication US20260092071A1, “COMPOUNDS AND COMPOSITIONS AS SMARCA2/4 DEGRADERS AND USES THEREOF” (REGENTS OF THE UNIVERSITY OF MICHIGAN, priority 2022, published 2026).

Experiments:
[1] = target: SMARCA2 (Homo sapiens, UniProt P51531); assay: HiBit assay in engineered HT1080 CRISPR knock-in cell, 6 hrs (B series), SMARCA2; type: cell-based; settings: 6 hrs incubation; for DC50: read-out: SMARC A2 HT1080 HiBit DC50; for Dmax: HT-1080, HT1080 CRISPR knock-in cells, read-out: SMARC A2 HT1080 HiBit Dmax (%)
SMARCA2, sequence (P51531 whole entry): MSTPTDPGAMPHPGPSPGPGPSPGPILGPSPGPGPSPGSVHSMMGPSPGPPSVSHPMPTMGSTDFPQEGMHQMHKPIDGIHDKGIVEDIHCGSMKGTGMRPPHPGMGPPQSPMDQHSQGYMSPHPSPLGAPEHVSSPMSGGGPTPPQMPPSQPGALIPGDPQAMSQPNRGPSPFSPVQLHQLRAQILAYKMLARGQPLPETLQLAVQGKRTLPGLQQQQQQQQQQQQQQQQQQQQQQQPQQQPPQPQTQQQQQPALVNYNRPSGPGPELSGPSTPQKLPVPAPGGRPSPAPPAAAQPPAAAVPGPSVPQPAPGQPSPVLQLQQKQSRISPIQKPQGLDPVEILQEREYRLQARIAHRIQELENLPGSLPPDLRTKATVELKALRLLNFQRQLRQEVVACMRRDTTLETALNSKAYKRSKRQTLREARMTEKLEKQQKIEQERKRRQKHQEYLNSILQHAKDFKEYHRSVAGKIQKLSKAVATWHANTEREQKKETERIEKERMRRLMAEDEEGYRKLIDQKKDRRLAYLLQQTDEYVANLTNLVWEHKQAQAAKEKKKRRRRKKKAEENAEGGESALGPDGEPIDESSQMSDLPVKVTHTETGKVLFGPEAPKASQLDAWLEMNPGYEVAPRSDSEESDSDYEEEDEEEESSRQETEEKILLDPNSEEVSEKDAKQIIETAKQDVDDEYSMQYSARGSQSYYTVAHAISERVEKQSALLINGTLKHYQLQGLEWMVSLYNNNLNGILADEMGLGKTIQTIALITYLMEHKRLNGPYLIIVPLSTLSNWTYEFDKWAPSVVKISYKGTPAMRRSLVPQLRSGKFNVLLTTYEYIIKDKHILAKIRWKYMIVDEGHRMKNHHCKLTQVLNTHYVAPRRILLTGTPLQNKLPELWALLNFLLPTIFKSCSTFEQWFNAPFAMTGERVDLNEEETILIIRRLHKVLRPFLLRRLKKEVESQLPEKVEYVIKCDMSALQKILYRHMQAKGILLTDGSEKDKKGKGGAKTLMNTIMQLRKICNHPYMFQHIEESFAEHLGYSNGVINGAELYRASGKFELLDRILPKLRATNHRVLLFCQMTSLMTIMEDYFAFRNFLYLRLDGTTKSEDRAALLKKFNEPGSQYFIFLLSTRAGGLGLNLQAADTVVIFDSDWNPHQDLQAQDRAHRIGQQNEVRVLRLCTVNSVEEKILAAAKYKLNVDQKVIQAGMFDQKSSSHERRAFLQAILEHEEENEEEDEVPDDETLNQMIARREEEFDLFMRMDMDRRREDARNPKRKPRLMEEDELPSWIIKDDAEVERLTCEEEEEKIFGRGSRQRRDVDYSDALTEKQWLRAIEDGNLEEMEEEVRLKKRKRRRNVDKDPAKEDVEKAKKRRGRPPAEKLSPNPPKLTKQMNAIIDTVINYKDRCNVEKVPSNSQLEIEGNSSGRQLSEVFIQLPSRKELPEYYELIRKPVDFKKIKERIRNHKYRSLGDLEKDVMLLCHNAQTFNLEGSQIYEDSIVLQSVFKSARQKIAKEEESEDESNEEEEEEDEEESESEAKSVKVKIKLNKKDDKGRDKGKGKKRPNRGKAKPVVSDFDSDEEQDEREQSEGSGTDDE
How it was run: (§1)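 HT1080 CRISPR knock-in cells carrying the HiBiT tag were seeded onto compounds (final DMSO 0.1%) and incubated 6 hrs at 37° C, 5% CO2. Remaining tagged protein was detected by lytic HiBiT luminescence after adding LgBiT protein and substrate, with LgBiT-free wells serving as negative control.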

[2] = target: SMARCA4 (Homo sapiens, UniProt P51532); assay: HiBit assay in engineered HT1080 CRISPR knock-in cell, 6 hrs (B series), SMARCA4; type: cell-based; settings: 6 hrs incubation; for DC50: read-out: SMARC A4 HT1080 HiBit DC50; for Dmax: HT-1080, HT1080 CRISPR knock-in cells, read-out: SMARC A4 HT1080 HiBit Dmax(%)
SMARCA4, sequence (P51532 whole entry): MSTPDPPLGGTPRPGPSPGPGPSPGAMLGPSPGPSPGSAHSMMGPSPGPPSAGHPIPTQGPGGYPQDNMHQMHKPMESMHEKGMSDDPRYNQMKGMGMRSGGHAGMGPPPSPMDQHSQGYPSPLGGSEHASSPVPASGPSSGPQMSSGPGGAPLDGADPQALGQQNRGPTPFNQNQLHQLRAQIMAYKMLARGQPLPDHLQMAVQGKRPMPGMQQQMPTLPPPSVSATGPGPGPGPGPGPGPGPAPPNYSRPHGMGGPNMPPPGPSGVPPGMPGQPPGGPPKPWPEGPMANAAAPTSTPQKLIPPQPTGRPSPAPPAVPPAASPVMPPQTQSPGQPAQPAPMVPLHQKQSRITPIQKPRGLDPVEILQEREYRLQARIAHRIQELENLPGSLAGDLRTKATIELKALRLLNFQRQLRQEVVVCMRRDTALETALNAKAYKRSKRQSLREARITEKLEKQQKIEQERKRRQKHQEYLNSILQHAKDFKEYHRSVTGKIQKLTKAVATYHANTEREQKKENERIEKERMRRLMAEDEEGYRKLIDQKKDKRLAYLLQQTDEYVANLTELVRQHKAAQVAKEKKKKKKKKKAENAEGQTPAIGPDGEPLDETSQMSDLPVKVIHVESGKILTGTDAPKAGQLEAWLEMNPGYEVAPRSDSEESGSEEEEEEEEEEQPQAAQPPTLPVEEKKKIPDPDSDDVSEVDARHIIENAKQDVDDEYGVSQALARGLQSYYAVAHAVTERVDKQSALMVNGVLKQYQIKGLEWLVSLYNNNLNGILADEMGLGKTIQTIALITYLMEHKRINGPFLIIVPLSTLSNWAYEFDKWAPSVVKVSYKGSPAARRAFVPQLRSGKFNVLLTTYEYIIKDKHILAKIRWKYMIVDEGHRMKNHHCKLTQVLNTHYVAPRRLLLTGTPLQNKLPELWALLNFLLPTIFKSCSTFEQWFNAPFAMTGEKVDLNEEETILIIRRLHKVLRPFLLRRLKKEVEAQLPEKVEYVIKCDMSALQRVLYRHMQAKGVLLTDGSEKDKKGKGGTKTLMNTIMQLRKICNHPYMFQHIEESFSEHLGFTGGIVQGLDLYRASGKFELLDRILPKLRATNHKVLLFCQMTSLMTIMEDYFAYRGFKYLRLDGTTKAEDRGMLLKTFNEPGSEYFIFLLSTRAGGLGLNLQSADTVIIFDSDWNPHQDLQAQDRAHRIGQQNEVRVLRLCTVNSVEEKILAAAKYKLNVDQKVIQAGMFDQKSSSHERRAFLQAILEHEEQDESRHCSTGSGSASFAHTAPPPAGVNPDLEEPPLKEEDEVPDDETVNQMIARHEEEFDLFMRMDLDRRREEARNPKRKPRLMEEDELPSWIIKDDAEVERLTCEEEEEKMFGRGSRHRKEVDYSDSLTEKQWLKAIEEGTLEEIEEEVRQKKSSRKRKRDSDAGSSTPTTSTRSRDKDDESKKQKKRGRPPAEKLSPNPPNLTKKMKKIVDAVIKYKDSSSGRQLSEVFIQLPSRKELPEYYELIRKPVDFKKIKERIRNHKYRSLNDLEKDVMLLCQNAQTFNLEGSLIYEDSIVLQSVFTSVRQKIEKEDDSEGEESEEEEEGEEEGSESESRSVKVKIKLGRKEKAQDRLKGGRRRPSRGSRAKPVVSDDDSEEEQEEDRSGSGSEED
How it was run: as §1

Structure (SMILES) | DC50 ([1]; HT1080 CRISPR knock-in cells) [nM] | Dmax [1] [%] | DC50 ([2]; HT1080 CRISPR knock-in cells) [nM] | Dmax [2] [%] | SMARC A2 HT1080 HiBit Dmax (%) ([1]; HT1080 CRISPR knock-in cells) | SMARC A4 HT1080 HiBit Dmax(%) ([2]; HT1080 CRISPR knock-in cells)
Cc1ncsc1-c1ccc([C@H](C)NC(=O)[C@@H]2C[C@@H](O)CN2C(=O)C(c2cc(OCCCCn3cc(-c4ccc5c(c4)C(C)(C)c4nc(=O)c6c(Cl)cccc6n4-5)cn3)no2)C(C)C)cc1 (stereo partly drawn) [Compound B99, (2S,4R)-1-(2-(3-(4-(4-(4-chloro-7,7-dimethyl-5-oxo-5,7-dihydroindolo[1,2-a]quinazolin-9-yl)-1H-pyrazol-1-yl)butoxy)isoxazol-5-yl)-3-methylbutanoyl)-4-hydroxy-N-((S)-1-(4-(4-methylthiazol-5-yl)phenyl)ethyl)pyrrolidine-2-carboxamide] | < 100 | 50 to 69 | > 1000 | < 50 |  | 
Cc1cc(C(C(=O)N2C[C@H](O)C[C@H]2C(=O)N[C@@H](CCN2CCC(c3cccc4c3C(C)(C)c3nc(=O)c5c(Cl)cccc5n3-4)CC2)c2ccc(-c3scnc3C)cc2)C(C)C)on1 (stereo partly drawn) [Compound B165, (2S,4R)-N-((S)-3-(4-(4-chloro-7,7-dimethyl-5-oxo-5,7-dihydroindolo[1,2-a]quinazolin-8-yl)piperidin-1-yl)-1-(4-(4-methylthiazol-5-yl)phenyl)propyl)-4-hydroxy-1-(3-methyl-2-(3-methylisoxazol-5-yl)butanoyl)pyrrolidine-2-carboxamide] | 100 to 500 |  | 100 to 500 |  | C (C (50-69% degradation)) | C (C (50-69% degradation))
Cc1ncsc1-c1ccc([C@H](CC(=O)NCCCCN2CCC(c3ccc4c(c3)-n3c(nc(=O)c5c(Cl)cccc53)C4(C)C)CC2)NC(=O)[C@@H]2C[C@@H](O)CN2C(=O)[C@@H](NC(=O)C2(F)CC2)C(C)(C)C)cc1 [Compound B33, (2S,4R)—N—((S)-3-((4-(4-(4-chloro-7,7-dimethyl-5-oxo-5,7-dihydroindolo[1,2-a]quinazolin-10-yl)piperidin-1-yl)butyl)amino)-1-(4-(4-methylthiazol-5-yl)phenyl)-3-oxopropyl)-1-((S)-2-(1-fluorocyclopropane-1-carboxamido)-3,3-dimethylbutanoyl)-4-hydroxypyrrolidine-2-carboxamide] | > 1000 | < 50 | > 1000 | < 50 |  | 
Cc1ncsc1-c1ccc([C@H](C)NC(=O)[C@@H]2C[C@@H](O)CN2C(=O)[C@@H](c2cc(OC3CCC(Cn4cc(-c5ccc6c(c5)-n5c(nc(=O)c7c(Cl)cccc75)C6(C)C)cn4)CC3)no2)C(C)C)cc1 (stereo partly drawn) [Compound B95, (2S,4R)-1-((R)-2-(3-((4-((4-(4-chloro-7,7-dimethyl-5-oxo-5,7-dihydroindolo[1,2-a]quinazolin-10-yl)-1H-pyrazol-1-yl)methyl)cyclohexyl)oxy)isoxazol-5-yl)-3-methylbutanoyl)-4-hydroxy-N-((S)-1-(4-(4-methylthiazol-5-yl)phenyl)ethyl)pyrrolidine-2-carboxamide] | 100 to 500 | 50 to 69 | > 1000 | < 50 |  | 
Cc1ncsc1-c1ccc([C@H](CCCCCn2cc(-c3ccc4c(c3)-n3c(nc(=O)c5c(Cl)cccc53)C4(C)C)cn2)NC(=O)[C@@H]2C[C@@H](O)CN2C(=O)[C@@H](NC(=O)C2(F)CC2)C(C)(C)C)cc1 [Compound B46, (2S,4R)-N-((S)-6-(4-(4-chloro-7,7-dimethyl-5-oxo-5,7-dihydroindolo[1,2-a]quinazolin-10-yl)-1H-pyrazol-1-yl)-1-(4-(4-methylthiazol-5-yl)phenyl)hexyl)-1-((S)-2-(1-fluorocyclopropane-1-carboxamido)-3,3-dimethylbutanoyl)-4-hydroxypyrrolidine-2-carboxamide] | < 100 | 70 to 90 | < 100 | 70 to 90 |  | 
Cc1ncsc1-c1ccc([C@H](C)NC(=O)C2C[C@@H](O)CN2C(=O)[C@@H](c2cc(OCCCCN3CCC(c4cccc5c4C(C)(C)c4nc(=O)c6c(Cl)cccc6n4-5)CC3)no2)C(C)C)cc1 (stereo in doubt) [Compound B98, (2S,4R)-1-(2-(3-(4-(4-(4-chloro-7,7-dimethyl-5-oxo-5,7-dihydroindolo[1,2-a]quinazolin-8-yl)piperidin-1-yl)butoxy)isoxazol-5-yl)-3-methylbutanoyl)-4-hydroxy-N-((S)-1-(4-(4-methylthiazol-5-yl)phenyl)ethyl)pyrrolidine-2-carboxamide] | < 100 | 70 to 90 | 100 to 500 | < 50 |  | 
Cc1ncsc1-c1ccc([C@H](CC(=O)NCC2CCC(N3CCC(c4ccc5c(c4)-n4c(nc(=O)c6c(Cl)cccc64)C5(C)C)CC3)CC2)NC(=O)[C@@H]2C[C@@H](O)CN2C(=O)[C@@H](NC(=O)C2(F)CC2)C(C)(C)C)cc1 (stereo partly drawn) [Compound B53, (2S,4R)-N-((S)-3-(((4-(4-(4-chloro-7,7-dimethyl-5-oxo-5,7-dihydroindolo[1,2-a]quinazolin-10-yl)piperidin-1-yl)cyclohexyl)methyl)amino)-1-(4-(4-methylthiazol-5-yl)phenyl)-3-oxopropyl)-1-((S)-2-(1-fluorocyclopropane-1-carboxamido)-3,3-dimethylbutanoyl)-4-hydroxypyrrolidine-2-carboxamide] | 100 to 500 | 70 to 90 | 100 to 500 | 50 to 69 |  | 

Results, then the molecule that gave them:

DC50 ([1]; HT1080 CRISPR knock-in cells) [nM] | Dmax [1] [%] | DC50 ([2]; HT1080 CRISPR knock-in cells) [nM] | Dmax [2] [%] | SMARC A2 HT1080 HiBit Dmax (%) ([1]; HT1080 CRISPR knock-in cells) | SMARC A4 HT1080 HiBit Dmax(%) ([2]; HT1080 CRISPR knock-in cells) | Structure (SMILES)
< 100 | > 90 | < 100 | > 90 |  |  | Cc1ncsc1-c1ccc([C@H](C)NC(=O)[C@@H]2C[C@@H](O)CN2C(=O)[C@@H](c2cc(OCCCN3CCC(c4ccc5c(c4)-n4c(nc(=O)c6c(Cl)cccc64)C5(C)C)CC3)no2)C(C)C)cc1 [Compound B26, (2S,4R)-1-((R)-2-(3-(3-(4-(4-chloro-7,7-dimethyl-5-oxo-5,7-dihydroindolo[1,2-a]quinazolin-10-yl)piperidin-1-yl)propoxy)isoxazol-5-yl)-3-methylbutanoyl)-4-hydroxy-N-((S)-1-(4-(4-methylthiazol-5-yl)phenyl)ethyl)pyrrolidine-2-carboxamide]
< 100 | > 90 | < 100 | > 90 |  |  | Cc1ncsc1-c1ccc([C@H](C)NC(=O)[C@@H]2C[C@@H](O)CN2C(=O)[C@@H](NC(=O)CN2CCC(c3ccc4c(c3)C(C)(C)c3nc(=O)c5c(Cl)cccc5n3-4)CC2)C(C)(C)C)cc1 [Compound B6, (2S,4R)-1-((S)-2-(2-(4-(4-chloro-7,7-dimethyl-5-oxo-5,7-dihydroindolo[1,2-a]quinazolin-9-yl)piperidin-1-yl)acetamido)-3,3-dimethylbutanoyl)-4-hydroxy-N—((S)-1-(4-(4-methylthiazol-5-yl)phenyl)ethyl)pyrrolidine-2-carboxamide]
< 100 | < 50 | < 100 | < 50 |  |  | Cc1ncsc1-c1ccc([C@H](C)NC(=O)[C@@H]2C[C@@H](O)CN2C(=O)[C@@H](c2cc(OCCn3cc(-c4ccc5c(c4)-n4c(nc(=O)c6c(Cl)cccc64)C5(C)C)cn3)no2)C(C)C)cc1 [Compound B60, (2S,4R)-1-(2-(3-(2-(4-(4-chloro-7,7-dimethyl-5-oxo-5,7-dihydroindolo[1,2-a]quinazolin-10-yl)-1H-pyrazol-1-yl)ethoxy)isoxazol-5-yl)-3-methylbutanoyl)-4-hydroxy-N-((S)-1-(4-(4-methylthiazol-5-yl)phenyl)ethyl)pyrrolidine-2-carboxamide]
< 100 | > 90 | < 100 | < 50 |  |  | Cc1ncsc1-c1ccc([C@H](C)NC(=O)[C@@H]2C[C@@H](O)CN2C(=O)[C@@H](c2cc(OC3CCC(N4CCC(c5ccc6c(c5)-n5c(nc(=O)c7c(Cl)cccc75)C6(C)C)CC4)CC3)no2)C(C)C)cc1 (stereo partly drawn) [Compound B81, (2S,4R)-1-((R)-2-(3-((4-(4-(4-chloro-7,7-dimethyl-5-oxo-5,7-dihydroindolo[1,2-a]quinazolin-10-yl)piperidin-1-yl)cyclohexyl)oxy)isoxazol-5-yl)-3-methylbutanoyl)-4-hydroxy-N-((S)-1-(4-(4-methylthiazol-5-yl)phenyl)ethyl)pyrrolidine-2-carboxamide]
< 100 | > 90 | < 100 | > 90 |  |  | Cc1ncsc1-c1ccc([C@H](CN2CCOCC2)NC(=O)[C@@H]2C[C@@H](O)CN2C(=O)[C@@H](c2cc(O[C@H]3CC[C@H](CN4CCN(c5ccc6c(c5)-n5c(nc(=O)c7c(Cl)cccc75)C65CCCCC5)CC4)CC3)no2)C(C)C)cc1 [Compound B138, (2S,4R)-1-((R)-2-(3-(((1r,4R)-4-((4-(4′-chloro-5′-oxo-5′H-spiro[cyclohexane-1,7′-indolo[1,2-a]quinazolin]-10′-yl)piperazin-1-yl)methyl)cyclohexyl)oxy)isoxazol-5-yl)-3-methylbutanoyl)-4-hydroxy-N-((R)-1-(4-(4-methylthiazol-5-yl)phenyl)-2-morpholinoethyl)pyrrolidine-2-carboxamide]
< 100 | > 90 | < 100 | 70 to 90 |  |  | Cc1ncsc1-c1ccc([C@H](C)NC(=O)[C@@H]2C[C@@H](O)CN2C(=O)[C@@H](NC(=O)C23CC(CN4CCC(c5ccc6c(c5)C(C)(C)c5nc(=O)c7c(Cl)cccc7n5-6)CC4)(C2)C3)C(C)(C)C)cc1 [Compound B23, (2S,4R)-1-((S)-2-(3-((4-(4-chloro-7,7-dimethyl-5-oxo-5,7-dihydroindolo[1,2-a]quinazolin-9-yl)piperidin-1-yl)methyl)bicyclo[1.1.1]pentane-1-carboxamido)-3,3-dimethylbutanoyl)-4-hydroxy-N-((S)-1-(4-(4-methylthiazol-5-yl)phenyl)ethyl)pyrrolidine-2-carboxamide]
